Data as given in ChEMBL document CHEMBL1201862, “PubChem BioAssay data set” (2004).
Active and inactive are the calls of the source.

How the values were obtained:
[1] = biological target: T1, Kappa-type opioid receptor (Homo sapiens, UniProt P41145); format: functional
[2] = biological target: T2, Beta-galactosidase (Escherichia coli, UniProt Q8VNN2); assay: PubChem AID 485352; format: functional
[3] = biological target: Mu-type opioid receptor (Homo sapiens, UniProt P35372); assay: HTS Image-Based Screen for Agonists of the MOR Receptor. [Related pubchem assays (depositor defined):AID1777, AID1785, AID1786, AID2133]; format: functional;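 further: imaging of beta-arrestin GFP recruitment into spots after receptor activation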
Chain of Mu-type opioid receptor (P35372 whole entry): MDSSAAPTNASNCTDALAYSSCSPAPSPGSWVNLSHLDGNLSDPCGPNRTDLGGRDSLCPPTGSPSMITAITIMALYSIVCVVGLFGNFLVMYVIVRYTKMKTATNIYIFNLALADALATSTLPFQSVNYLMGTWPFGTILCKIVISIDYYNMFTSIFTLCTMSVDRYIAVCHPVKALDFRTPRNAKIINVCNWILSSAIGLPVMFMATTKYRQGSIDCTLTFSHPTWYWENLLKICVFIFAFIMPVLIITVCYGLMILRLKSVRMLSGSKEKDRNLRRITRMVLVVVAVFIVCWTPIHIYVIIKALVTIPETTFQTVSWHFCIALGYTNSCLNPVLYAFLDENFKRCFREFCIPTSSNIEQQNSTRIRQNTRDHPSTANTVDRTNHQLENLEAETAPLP

[4] = biological target: T3, Type-1 angiotensin II receptor (Homo sapiens, UniProt P30556); assay: antagonism of angiotensin II type 1 receptor – cell-based, uHTS hits, selectivity assay for APJ receptor antagonist project, dose response (AID 463214); format: functional;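 further: antagonist potency against angiotensin II stimulated AT1 response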
T3 sequence (P30556 whole entry): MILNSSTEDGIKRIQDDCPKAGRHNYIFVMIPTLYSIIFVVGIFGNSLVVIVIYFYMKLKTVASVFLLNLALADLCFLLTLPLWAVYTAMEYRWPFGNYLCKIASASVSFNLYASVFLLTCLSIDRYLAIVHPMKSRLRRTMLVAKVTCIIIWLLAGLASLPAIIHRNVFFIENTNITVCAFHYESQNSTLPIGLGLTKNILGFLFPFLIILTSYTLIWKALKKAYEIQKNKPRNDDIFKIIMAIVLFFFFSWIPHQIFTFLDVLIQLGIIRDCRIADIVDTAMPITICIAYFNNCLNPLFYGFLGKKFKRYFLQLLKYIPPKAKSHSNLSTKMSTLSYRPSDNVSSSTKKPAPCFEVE

[5] = Trypanosoma cruzi growth suppression in host cells – NIH3T3 host cells, beta-gal luminescence, confirmation (AID 2044); format: functional, cell-based;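 further: intracellular parasites grown in NIH/3T3 mouse fibroblasts as host cells; luminescent beta-galactosidase reporter signal from transgenic T. cruzi replicating inside host cells; inhibitors lower the luminescence signal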
[6] = biological target: T2, Beta-galactosidase; format: functional
[7] = biological target: T4, Delta-type opioid receptor (Homo sapiens, UniProt P41143); assay: HTS Image-Based Screen for Antagonists of the DOR Receptor. [Related pubchem assays (depositor defined):AID1777, AID1785, AID1786, AID2133]; format: functional
T4 sequence (P41143 whole entry): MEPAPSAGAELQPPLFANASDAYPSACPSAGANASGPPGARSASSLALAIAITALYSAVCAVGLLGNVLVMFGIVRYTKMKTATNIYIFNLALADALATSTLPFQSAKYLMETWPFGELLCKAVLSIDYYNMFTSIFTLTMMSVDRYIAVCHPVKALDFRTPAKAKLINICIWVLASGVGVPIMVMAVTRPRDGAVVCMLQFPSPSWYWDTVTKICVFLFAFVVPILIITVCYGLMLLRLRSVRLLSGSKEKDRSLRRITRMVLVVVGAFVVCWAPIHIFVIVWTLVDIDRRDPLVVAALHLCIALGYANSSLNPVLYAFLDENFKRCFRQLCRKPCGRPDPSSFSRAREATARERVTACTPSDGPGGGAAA

[8] = biological target: T1, Kappa-type opioid receptor; format: functional; remark: listed apart in the source
[9] = biological target: T4, Delta-type opioid receptor; assay: HTS Image-Based Screen for Agonists of the DOR Receptor. [Related pubchem assays (depositor defined):AID1777, AID1786, AID2133]; format: functional
[10] = NIH3T3 cell viability loss – ATP luminescence, mouse fibroblasts, counter-screen, dose response (AID 2010); format: functional, cell-based;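 further: cells exposed to compound for about 90 hours before reading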
[11] = biological target: CAAX prenyl protease 2 (Homo sapiens, UniProt Q9Y256); assay: inhibition of Ras-converting CAAX protease Rce1 – biochemical, yeast membranes, quenched-peptide fluorescence, cherry-pick, dose response (AID 588849)
Chain of CAAX prenyl protease 2 (Q9Y256 whole entry): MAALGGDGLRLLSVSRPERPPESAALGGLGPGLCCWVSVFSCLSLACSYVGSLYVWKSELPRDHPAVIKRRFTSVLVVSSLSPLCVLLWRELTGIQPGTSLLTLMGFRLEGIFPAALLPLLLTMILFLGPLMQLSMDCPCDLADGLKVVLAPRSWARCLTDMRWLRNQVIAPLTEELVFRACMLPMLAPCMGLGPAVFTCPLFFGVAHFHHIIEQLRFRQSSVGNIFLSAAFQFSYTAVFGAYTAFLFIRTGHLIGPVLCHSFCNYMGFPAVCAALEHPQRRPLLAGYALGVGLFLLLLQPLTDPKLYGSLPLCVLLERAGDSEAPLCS

[12] = biological target: Trypsin (Sus scrofa, UniProt P00761); assay: trypsin protease activity blockade – biochemical, quenched peptide fluorescence, cherry-pick, selectivity assay for Rce1 protease inhibitor project, dose response (AID 488789)
Chain of Trypsin (P00761 whole entry): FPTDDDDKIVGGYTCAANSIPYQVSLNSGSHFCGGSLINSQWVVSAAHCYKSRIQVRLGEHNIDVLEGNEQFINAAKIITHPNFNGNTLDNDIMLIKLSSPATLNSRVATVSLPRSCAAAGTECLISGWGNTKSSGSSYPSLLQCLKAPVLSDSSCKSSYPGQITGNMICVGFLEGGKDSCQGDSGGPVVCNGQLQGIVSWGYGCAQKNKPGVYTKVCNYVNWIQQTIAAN

[13] = test system: BJ; assay: BJ-TERT-LT-ST fibroblast viability loss – cell-based, RAS-independent, luminescence, dose response (AID 1935); format: functional; conditions: Homo sapiens;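 further: BJ fibroblasts immortalized with TERT plus LT and ST oncogenes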
[14] = test system: HEK293; assay: cells; conditions: Homo sapiens
[15] = biological target: T5, Microphthalmia-associated transcription factor (Homo sapiens, UniProt O75030); assay: reducers of TRPM1 reporter luminescence, concentration series – cell-based, SK-MEL-5, cherry-picked, set 3, MITF inhibitor project, dose response (AID 493073); format: functional;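 further: SK-MEL-5 melanoma cells with luciferase driven by the MITF target TRPM1 promoter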
T5 sequence (O75030 whole entry): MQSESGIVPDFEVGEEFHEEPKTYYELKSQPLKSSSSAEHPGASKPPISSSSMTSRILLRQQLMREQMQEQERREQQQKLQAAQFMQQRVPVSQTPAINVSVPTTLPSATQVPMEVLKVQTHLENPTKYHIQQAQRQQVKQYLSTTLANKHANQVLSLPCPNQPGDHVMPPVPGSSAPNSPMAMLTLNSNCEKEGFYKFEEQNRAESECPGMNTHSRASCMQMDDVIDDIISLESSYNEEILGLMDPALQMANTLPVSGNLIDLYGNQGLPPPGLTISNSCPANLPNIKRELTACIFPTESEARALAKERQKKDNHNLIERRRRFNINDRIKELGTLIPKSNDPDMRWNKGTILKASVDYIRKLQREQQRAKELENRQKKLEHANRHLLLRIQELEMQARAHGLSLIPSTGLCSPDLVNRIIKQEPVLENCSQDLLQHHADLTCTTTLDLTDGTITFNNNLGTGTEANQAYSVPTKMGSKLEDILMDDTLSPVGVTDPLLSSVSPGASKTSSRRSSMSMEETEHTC

[16] = DRD fibroblast viability loss – cell-based, non-viral oncogenic, luminescence, dose response (AID 1934); format: functional; conditions: Homo sapiens
[17] = test system: HEK293; assay: cells; conditions: Homo sapiens; remark: listed apart in the source
[18] = test system: BJ; assay: BJ-TERT fibroblast viability loss – cell-based, RAS-independent, luminescence, dose response (AID 1933); format: functional; conditions: Homo sapiens
[19] = test system: BJ; assay: cells; format: functional, cell-based; conditions: Homo sapiens
[20] = biological target: T6, Heat shock factor protein 1 (Mus musculus, UniProt P38532); assay: enhancement of HSF1-driven luciferase signal – cell-based, NIH3T3, luminescence, dose retest, confirmation (AID 435004); format: functional;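 further: stress induced by proteasome inhibitor MG132 added 30 min after compound; luciferase reporter driven by HSF1 response element in NIH3T3 cells; actives raise luminescence as potentiators of the MG132 stress response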
T6 sequence (P38532 whole entry): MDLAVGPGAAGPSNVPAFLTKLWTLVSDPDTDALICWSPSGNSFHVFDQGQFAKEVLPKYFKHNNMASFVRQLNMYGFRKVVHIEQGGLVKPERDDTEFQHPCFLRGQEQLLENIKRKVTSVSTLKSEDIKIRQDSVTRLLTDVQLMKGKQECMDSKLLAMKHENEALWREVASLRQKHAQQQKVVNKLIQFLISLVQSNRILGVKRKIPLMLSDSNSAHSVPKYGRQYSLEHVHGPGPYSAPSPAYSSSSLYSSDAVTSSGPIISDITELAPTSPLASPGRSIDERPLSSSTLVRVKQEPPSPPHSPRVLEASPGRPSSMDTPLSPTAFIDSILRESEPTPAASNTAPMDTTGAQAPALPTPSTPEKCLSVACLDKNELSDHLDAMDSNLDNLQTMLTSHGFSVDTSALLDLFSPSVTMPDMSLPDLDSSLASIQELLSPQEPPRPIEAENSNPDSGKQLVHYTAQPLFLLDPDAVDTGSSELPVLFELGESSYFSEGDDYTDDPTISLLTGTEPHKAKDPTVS

[21] = biological target: T7, E3 ubiquitin-protein ligase XIAP (Homo sapiens, UniProt P98170); assay: small molecules displacing peptide from XIAP – biochemical, IAP family, fluorescence polarization (AID 1018); format: functional
T7 sequence (P98170 whole entry): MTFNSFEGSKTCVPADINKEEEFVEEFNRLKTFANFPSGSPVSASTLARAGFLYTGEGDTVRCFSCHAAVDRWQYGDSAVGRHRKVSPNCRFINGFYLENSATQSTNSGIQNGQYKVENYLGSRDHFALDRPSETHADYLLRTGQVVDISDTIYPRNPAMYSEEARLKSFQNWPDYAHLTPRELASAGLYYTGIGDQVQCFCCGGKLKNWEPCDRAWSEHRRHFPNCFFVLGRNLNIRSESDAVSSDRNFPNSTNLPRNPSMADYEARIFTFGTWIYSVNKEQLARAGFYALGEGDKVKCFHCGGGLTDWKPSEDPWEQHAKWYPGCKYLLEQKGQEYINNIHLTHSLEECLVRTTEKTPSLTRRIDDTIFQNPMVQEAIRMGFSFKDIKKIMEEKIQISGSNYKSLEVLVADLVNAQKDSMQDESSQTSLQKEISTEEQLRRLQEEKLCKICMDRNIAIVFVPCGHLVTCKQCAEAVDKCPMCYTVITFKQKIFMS

[22] = biological target: T7, E3 ubiquitin-protein ligase XIAP; assay: Counter Screen using XIAP-Bir3 for Chemical Antagonists of Bir1/2 domains of IAP-family anti-apoptotic proteins. [Related pubchem assays (depositor defined):AID1018, AID1449, AID1514, AID1638, AID1749, AID1750, AID488957, AID488963]
[23] = biological target: T8, Calpain-2 catalytic subunit (Sus scrofa, UniProt P43367); assay: m-calpain protease blockers, concentration series – biochemical, fluorogenic peptide substrate, dose response (AID 1420); format: functional
T8 sequence (P43367 whole entry): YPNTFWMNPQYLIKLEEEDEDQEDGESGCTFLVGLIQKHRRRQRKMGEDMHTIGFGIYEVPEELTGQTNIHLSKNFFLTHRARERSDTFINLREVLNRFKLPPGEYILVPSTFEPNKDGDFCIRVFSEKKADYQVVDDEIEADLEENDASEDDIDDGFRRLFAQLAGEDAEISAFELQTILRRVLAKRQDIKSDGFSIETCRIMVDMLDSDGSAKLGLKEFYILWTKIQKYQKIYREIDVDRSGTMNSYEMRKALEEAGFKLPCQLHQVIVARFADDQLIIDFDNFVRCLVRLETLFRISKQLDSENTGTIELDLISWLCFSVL

[24] = biological target: Nucleotide-binding oligomerization domain-containing protein 1 (Homo sapiens, UniProt Q9Y239); assay: blockers of NOD1 pathway activity – revised, SAR follow-up (AID 2333); format: functional
Chain of Nucleotide-binding oligomerization domain-containing protein 1 (Q9Y239 whole entry, the tested form may be a part): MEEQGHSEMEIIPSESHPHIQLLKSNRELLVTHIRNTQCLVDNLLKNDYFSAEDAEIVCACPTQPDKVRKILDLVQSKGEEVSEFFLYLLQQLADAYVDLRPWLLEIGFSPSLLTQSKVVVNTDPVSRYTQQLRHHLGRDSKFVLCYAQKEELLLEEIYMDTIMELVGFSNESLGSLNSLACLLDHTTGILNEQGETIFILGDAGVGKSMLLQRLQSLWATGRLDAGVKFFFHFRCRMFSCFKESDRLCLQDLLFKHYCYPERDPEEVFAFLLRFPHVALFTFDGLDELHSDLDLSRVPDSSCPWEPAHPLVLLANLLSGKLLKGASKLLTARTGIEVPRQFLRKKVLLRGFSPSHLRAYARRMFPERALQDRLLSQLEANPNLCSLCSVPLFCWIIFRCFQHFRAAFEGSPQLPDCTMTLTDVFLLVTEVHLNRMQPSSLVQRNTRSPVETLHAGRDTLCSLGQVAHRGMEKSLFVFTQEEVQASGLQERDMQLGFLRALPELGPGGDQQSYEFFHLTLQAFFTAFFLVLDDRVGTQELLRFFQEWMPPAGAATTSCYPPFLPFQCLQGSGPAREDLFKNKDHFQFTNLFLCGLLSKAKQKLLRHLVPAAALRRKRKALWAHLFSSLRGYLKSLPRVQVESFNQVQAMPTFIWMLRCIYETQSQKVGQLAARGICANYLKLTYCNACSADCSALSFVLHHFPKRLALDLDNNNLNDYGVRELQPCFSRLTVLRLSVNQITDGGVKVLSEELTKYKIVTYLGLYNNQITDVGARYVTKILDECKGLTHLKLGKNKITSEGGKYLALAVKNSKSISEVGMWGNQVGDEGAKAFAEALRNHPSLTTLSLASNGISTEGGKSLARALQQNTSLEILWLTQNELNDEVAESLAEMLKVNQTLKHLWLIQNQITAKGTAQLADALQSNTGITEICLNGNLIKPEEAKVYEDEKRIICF

[25] = test system: HEK293; assay: cells; conditions: Homo sapiens; remark: listed apart in the source
[26] = biological target: Tumor necrosis factor (Homo sapiens, UniProt P01375); assay: analog potency on TNFa NF-kB signaling – cell-based, revised, SAR follow-up (AID 2337); format: functional
Chain of Tumor necrosis factor (P01375 whole entry): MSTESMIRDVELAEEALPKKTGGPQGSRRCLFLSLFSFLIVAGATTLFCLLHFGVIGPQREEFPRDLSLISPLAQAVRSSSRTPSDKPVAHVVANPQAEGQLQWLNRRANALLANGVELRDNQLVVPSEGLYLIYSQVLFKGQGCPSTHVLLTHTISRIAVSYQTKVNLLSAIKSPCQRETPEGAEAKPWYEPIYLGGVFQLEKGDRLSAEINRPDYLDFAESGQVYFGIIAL

[27] = biological target: Cytochrome P450 2D6 (Homo sapiens, UniProt P10635);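 further: CYP2D6 member of a cytochrome P450 panel assay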
Chain of Cytochrome P450 2D6 (P10635 whole entry): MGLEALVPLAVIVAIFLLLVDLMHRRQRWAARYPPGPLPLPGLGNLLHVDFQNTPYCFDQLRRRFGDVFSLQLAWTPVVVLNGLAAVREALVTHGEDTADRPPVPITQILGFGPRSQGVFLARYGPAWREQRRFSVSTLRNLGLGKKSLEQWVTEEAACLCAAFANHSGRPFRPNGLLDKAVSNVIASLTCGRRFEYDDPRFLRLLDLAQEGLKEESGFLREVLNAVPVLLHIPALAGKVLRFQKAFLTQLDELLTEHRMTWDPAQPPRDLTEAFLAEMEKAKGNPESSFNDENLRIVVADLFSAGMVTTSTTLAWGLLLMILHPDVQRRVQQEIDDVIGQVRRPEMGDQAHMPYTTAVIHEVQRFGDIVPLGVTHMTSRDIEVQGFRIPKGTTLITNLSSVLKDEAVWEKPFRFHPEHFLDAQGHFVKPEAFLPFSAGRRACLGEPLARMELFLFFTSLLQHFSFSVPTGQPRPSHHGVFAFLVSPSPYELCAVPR

T1 sequence (P41145 whole entry): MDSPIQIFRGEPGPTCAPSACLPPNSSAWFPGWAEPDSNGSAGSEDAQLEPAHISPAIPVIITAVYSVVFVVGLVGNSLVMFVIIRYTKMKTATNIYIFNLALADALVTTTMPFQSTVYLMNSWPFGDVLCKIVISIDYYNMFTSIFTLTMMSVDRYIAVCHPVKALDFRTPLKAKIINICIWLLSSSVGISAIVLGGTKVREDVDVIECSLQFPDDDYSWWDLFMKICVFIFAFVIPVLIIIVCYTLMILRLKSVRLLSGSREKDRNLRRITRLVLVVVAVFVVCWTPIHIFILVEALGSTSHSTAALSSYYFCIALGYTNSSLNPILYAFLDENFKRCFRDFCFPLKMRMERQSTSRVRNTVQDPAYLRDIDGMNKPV
T2 sequence (Q8VNN2 whole entry): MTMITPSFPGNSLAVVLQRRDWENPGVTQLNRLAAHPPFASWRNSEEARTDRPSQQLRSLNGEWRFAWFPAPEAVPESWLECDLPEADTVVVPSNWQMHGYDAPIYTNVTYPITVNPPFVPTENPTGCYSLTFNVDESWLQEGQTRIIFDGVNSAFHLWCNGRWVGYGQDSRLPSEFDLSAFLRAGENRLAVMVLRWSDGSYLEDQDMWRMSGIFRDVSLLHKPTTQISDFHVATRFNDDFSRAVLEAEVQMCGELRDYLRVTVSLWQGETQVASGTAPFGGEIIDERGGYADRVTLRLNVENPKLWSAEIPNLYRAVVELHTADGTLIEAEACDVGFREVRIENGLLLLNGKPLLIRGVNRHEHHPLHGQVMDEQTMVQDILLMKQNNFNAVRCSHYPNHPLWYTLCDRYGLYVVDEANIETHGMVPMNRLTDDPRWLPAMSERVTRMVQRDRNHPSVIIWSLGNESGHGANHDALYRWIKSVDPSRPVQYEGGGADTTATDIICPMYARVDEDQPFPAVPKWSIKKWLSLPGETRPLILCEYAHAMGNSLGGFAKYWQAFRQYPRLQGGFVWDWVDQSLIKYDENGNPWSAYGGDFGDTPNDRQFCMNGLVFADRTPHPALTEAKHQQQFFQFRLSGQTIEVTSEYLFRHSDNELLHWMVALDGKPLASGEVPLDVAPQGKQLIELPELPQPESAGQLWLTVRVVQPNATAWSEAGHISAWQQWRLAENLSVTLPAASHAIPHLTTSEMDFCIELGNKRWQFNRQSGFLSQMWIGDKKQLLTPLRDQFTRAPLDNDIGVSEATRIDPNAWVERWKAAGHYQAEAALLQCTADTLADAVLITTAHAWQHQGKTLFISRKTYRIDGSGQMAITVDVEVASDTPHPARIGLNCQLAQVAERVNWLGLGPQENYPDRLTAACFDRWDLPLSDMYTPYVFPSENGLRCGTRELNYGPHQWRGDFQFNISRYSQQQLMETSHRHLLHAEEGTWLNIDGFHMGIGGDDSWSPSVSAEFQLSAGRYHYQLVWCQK

## Cc1ccc2oc(Nc3nc(O)cc(-c4ccccc4)n3)nc2c1
[1]
  IC50: 11.9 µM (active)
[2]
  EC50: > 40 µM (inactive)
[3]
  EC50: > 32 µM (inactive)
[4]
  IC50: 3.99 µM (active)
[5]
  EC50: 1.62 µM (active)
[6]
  EC50: > 31.5 µM (inactive)
[7]
  IC50: > 32 µM (inactive)
[8]
  IC50: > 32 µM
[9]
  EC50: > 32 µM (inactive)
[10]
  EC50: > 30 µM (not active)

## COc1ccccc1Oc1c(C)oc2c(CN3CCN(CCO)CC3)c(O)ccc2c1=O
[11]
  AC50: 2.48 µM (active)
[12]
  AC50: 5.25 µM (active)

## CN(C)c1nc(C=C(C#N)C#N)c(Cl)n1-c1ccc(F)cc1
[13]
  EC50: 5.12 µM (inconclusive)
[14]
  EC50: > 59.6 µM (inactive)
[15]
  AC50: 3.92 µM (active)
[16]
  EC50: 4.24 µM (active)
[17]
  EC50: > 59.6 µM (inactive)
[18]
  EC50: 4.83 µM (active)
[19]
  EC50: 5 µM (active)
[20]
  EC50: 27.8 µM (active)

## COc1ccc(/C=C(\NC(=O)c2ccccc2Cl)C(=O)NCCCC(=O)O)cc1
[21]
  IC50: > 100 µM (not active)
[22]
  IC50: > 100 µM (inactive)
[23]
  IC50: > 50 µM (not active)

## Cc1ccc(N2CCN(S(=O)(=O)c3ccc4c(c3)CC(C)N4C(=O)C3CC3)CC2)cc1 (stereo not given)
[24]
  IC50: > 20 µM (inactive)
[25]
  IC50: > 20 µM (inactive)
[26]
  IC50: > 20 µM (inactive)

## CCOc1ccc(C(=O)Nc2ccc(CN3CCc4ccccc4C3)cc2)cc1
[24]
  IC50: > 20 µM (inactive)
[25]
  IC50: > 20 µM (inactive)
[26]
  IC50: > 20 µM (inactive)

## NCCCc1c(-c2ccccc2)nc(N)[nH]c1=O
[27]
  AC50: inconclusive
